Like-named read-outs stand apart in the source and are kept apart here.
Target: PDE1B (Homo sapiens, UniProt Q01064)
Experiment: In vitro HTRF PDE1 inhibition assay (PDE1B)
Format: biochemical
[1] = in vitro PDE1B HTRF Assay, read-out: IC50

PDE1B, sequence (Q01064 whole entry): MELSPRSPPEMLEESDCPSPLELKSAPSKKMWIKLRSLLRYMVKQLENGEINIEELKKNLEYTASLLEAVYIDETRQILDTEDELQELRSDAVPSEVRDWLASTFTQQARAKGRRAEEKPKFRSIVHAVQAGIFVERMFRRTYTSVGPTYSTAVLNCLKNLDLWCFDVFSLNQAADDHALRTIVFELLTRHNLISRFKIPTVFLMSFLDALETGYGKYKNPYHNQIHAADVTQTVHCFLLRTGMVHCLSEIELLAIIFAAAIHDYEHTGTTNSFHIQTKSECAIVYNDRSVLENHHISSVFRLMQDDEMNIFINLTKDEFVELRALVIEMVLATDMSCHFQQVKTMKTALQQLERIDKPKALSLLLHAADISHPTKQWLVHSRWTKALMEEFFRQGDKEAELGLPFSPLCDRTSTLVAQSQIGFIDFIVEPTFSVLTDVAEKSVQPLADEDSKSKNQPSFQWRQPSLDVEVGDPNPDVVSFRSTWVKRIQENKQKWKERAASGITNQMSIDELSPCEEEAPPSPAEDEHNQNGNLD

Row | Structure (SMILES) | IC50 [1] [nM] | IC50 [nM]
1 | O=c1c2cnc(C3CCOCC3)n2nc(N2CCCC2)n1CC1CC1 [Example 206, 3-(Cyclopropylmethyl)-2-(pyrrolidin-1-yl)-7-(tetrahydro-2H-pyran-4-yl)imidazo[5,1-f][1,2,4]triazin-4(3H)-one] | 1000 to 10000 | 
2 | CC(C)n1c(N2CCCC2)nn2c(C3CCOCC3)ncc2c1=O [Example 207] | 10000 to 100000 | 
3 | CC(C)Cn1c(N2CCCC2)nn2c(C3CCOCC3)ncc2c1=O [Example 208] | 1000 to 10000 | 
4 | O=c1c2cnc(C3CCOCC3)n2nc(N2CCCC2)n1CCC(F)(F)F [Example 209] | 10000 to 100000 | 
5 | O=c1c2cnc(C3CCOCC3)n2nc(N2CCCC2)n1CC1CCC1 [Example 211] | 10000 to 100000 | 
6 | O=c1c2cnc(C3CCOCC3)n2nc(N2CCCC2)n1CC1CCCC1 [Example 212] | 10000 to 100000 | 
7 | O=c1c2cnc(C3CCOCC3)n2nc(N2CCCC2)n1CC1CCCCC1 [Example 213] | 1000 to 10000 | 
8 | O=c1c2cnc(C3CCOCC3)n2nc(N2CCCC2)n1CC1CCOCC1 [Example 214] | 10000 to 100000 | 
9 | O=c1c2cnc(C3CCOCC3)n2nc(N2CCCC2)n1CCC1CCOCC1 [Example 215] | 10000 to 100000 | 
10 | Cc1ccc([C@H]2CCCN2c2nn3c(C(C)C)ncc3c(=O)n2C)cn1 [Example 216, 3-Methyl-2-[(2R)-2-(6-methylpyridin-3-yl)pyrrolidin-1-yl]-7-(propan-2-yl)imidazo[5,1-f][1,2,4]triazin-4(3H)-one] |  | < 1000
11 | Cc1ccc([C@@H]2CCCN2c2nn3c(C(C)C)ncc3c(=O)n2C)cn1 [Example 217, 3-Methyl-2-[(2S)-2-(6-methylpyridin-3-yl)pyrrolidin-1-yl]-7-(propan-2-yl)imidazo[5,1-f][1,2,4]triazin-4(3H)-one] | 1000 to 10000 | 
12 | Cc1ccc([C@H]2CCCN2c2nn3c(C(C)C)ncc3c(=O)n2C)nc1 [Example 218, 3-Methyl-2-[(2R)-2-(5-methylpyridin-2-yl)pyrrolidin-1-yl]-7-(propan-2-yl)imidazo[5,1-f][1,2,4]triazin-4(3H)-one] | < 1000 | 
13 | Cc1ccc([C@@H]2CCCN2c2nn3c(C(C)C)ncc3c(=O)n2C)nc1 [Example 219, 3-Methyl-2-[(2S)-2-(5-methylpyridin-2-yl)pyrrolidin-1-yl]-7-(propan-2-yl)imidazo[5,1-f][1,2,4]triazin-4(3H)-one] | < 1000 | 
14 | COCCN1CCCN(c2nn3c(C4CCOCC4)ncc3c(=O)n2C)CC1 [Example 220, 2-[4-(2-Methoxyethyl)-1,4-diazepan-1-yl]-3-methyl-7-(tetrahydro-2H-pyran-4-yl)imidazo[5,1-f][1,2,4]triazin-4(3H)-one] | 10000 to 100000 | 
15 | COCC(=O)N1CCCN(c2nn3c(C4CCOCC4)ncc3c(=O)n2C)CC1 [Example 221, 2-[4-(Methoxyacetyl)-1,4-diazepan-1-yl]-3-methyl-7-(tetrahydro-2H-pyran-4-yl)imidazo[5,1-f][1,2,4]triazin-4(3H)-one] | 1000 to 10000 | 
16 | CN(C)CC(=O)N1CCCN(c2nn3c(C4CCOCC4)ncc3c(=O)n2C)CC1 [Example 222, 2-{4-[(Dimethylamino)acetyl]-1,4-diazepan-1-yl}-3-methyl-7-(tetrahydro-2H-pyran-4-yl)imidazo[5,1-f][1,2,4]triazin-4(3H)-one] | 10000 to 100000 | 
17 | CC(C)c1ncc2c(=O)n(C)c(COc3ccc(Cl)cc3)nn12 [Example 223, 2-[(4-Chlorophenoxy)methyl]-3-methyl-7-(propan-2-yl)imidazo[5,1-f][1,2,4]triazin-4(3H)-one] | 1000 to 10000 | 

Row | Structure (SMILES) | IC50 [1] [nM] | IC50 [nM]
18 | Cc1ccc(OCc2nn3c(C(C)C)ncc3c(=O)n2C)cc1 [Example 225] | 1000 to 10000 | 
19 | CC(C)c1ncc2c(=O)n(C)c(COc3ccc(F)cc3)nn12 [Example 226] | < 1000 | 
20 | CC(C)c1ncc2c(=O)n(C)c(CN(C)c3ccc(C(F)(F)F)cc3)nn12 [Example 230, 3-Methyl-2-({methyl[4-(trifluoromethyl)phenyl]amino}methyl)-7-(propan-2-yl)imidazo[5,1-f][1,2,4]triazin-4(3H)-one] | < 1000 | 
21 | Cc1nn2c(C3CCOCC3)ncc2c(=O)n1CC1CCC(F)(F)CC1 [Example 237, 3-[(4,4-Difluorocyclohexyl)methyl]-2-methyl-7-(tetrahydro-2H-pyran-4-yl)imidazo[5,1-f][1,2,4]triazin-4(3H)-one] | < 1000 | 
22 | Cn1c(OC[C@H]2CC[C@@H](C(F)(F)F)CC2)nn2c(C3CCOCC3)ncc2c1=O [Example 248, 3-methyl-7-(tetrahydro-2H-pyran-4-yl)-2-{[cis-4-(trifluoromethyl)cyclohexyl]methoxy}-imidazo[5,1-f][1,2,4]triazin-4(3H)-one] | < 1000 | 
23 | CCO[C@H]1CC[C@@H](COc2nn3c(C4CCOCC4)ncc3c(=O)n2CC)CC1 [Example 250] | < 1000 | 
24 | CCn1c(OC[C@H]2CC[C@@H](C(F)(F)F)CC2)nn2c(C3CCOCC3)ncc2c1=O [Example 252] | < 1000 | 
25 | Cn1c(O[C@H]2CC[C@H](C)CC2)nn2c(C3CCOCC3)ncc2c1=O [Example 254, 3-Methyl-2-[(trans-4-methylcyclohexyl)oxy]-7-(tetrahydro-2H-pyran-4-yl)imidazo[5,1-f][1,2,4]triazin-4(3H)-one] | < 1000 | 
26 | CCn1c(COC2CCC(F)(F)CC2)nn2c(C3CCOCC3)ncc2c1=O [Example 260, 2-{[(4,4-Difluorocyclohexyl)oxy]methyl}-3-ethyl-7-(tetrahydro-2H-pyran-4-yl)imidazo[5,1-f][1,2,4]triazin-4(3H)-one] | < 1000 | 
27 | COc1nn2c(C(C)C)ncc2c(=O)n1Cc1ccccn1 [Example 262] | < 1000 | 
28 | COc1nn2c(C(C)C)ncc2c(=O)n1CC1CCC(F)(F)CC1 [Example 263] | < 1000 | 
29 | COc1nn2c(C3CCOCC3)ncc2c(=O)n1CC1CC1 [Example 272] | < 1000 | 
30 | COc1nn2c(C3CCOCC3)ncc2c(=O)n1CC1CCC1 [Example 273] | < 1000 | 
31 | COc1nn2c(C3CCOCC3)ncc2c(=O)n1CCC(F)(F)F [Example 276] | 1000 to 10000 | 
32 | COCCn1c(OCC2CCC(F)(F)CC2)nn2c(C3CCOCC3)ncc2c1=O [Example 277] | 1000 to 10000 | 
33 | COCCn1c(OCC2CCC(F)(F)CC2)nn2c(C(C)C)ncc2c1=O [Example 278] | < 1000 | 

Second part, led by results:

Row | IC50 [1] [nM] | Structure (SMILES) | IC50 [nM]
34 | 10000 to 100000 | COCCn1c(N2CCCC2)nn2c(C3CCOCC3)ncc2c1=O [Example 210] | 
35 | 1000 to 10000 | Cc1ccc(OCc2nn3c(C4CCCC4)ncc3c(=O)n2C)cc1 [Example 227] | 
36 | 1000 to 10000 | Cn1c(COc2ccc(F)cc2)nn2c(C3CCCC3)ncc2c1=O [Example 228] | 
37 | < 1000 | CC(C)c1ncc2c(=O)n(C)c(CN3CCCc4cc(Cl)ccc43)nn12 [Example 229, 2-[(6-Chloro-3,4-dihydroquinolin-1(2H)-yl)methyl]-3-methyl-7-(propan-2-yl)imidazo[5,1-f][1,2,4]triazin-4(3H)-one] | 
38 | < 1000 | Cn1c(CN2Cc3ccccc3C2=O)nn2c(C3CCCC3)ncc2c1=O [Example 231, 7-Cyclopentyl-3-methyl-2-[(1-oxo-1,3-dihydro-2H-isoindol-2-yl)methyl]imidazo[5,1-f][1,2,4]triazin-4(3H)-one] | 
39 | 1000 to 10000 | CC(C)c1ncc2c(=O)n(C)c(CN3Cc4ccccc4C3=O)nn12 [Example 232] | 
40 | < 1000 | Cn1c(CN2CCCc3cc(Cl)ccc32)nn2c(C3CCCC3)ncc2c1=O [Example 233] | 
41 | < 1000 | Cn1c(CN2C(=O)c3ccccc3C2=O)nn2c(C3CCCC3)ncc2c1=O [Example 234] | 
42 | < 1000 | CN(Cc1nn2c(C3CCCC3)ncc2c(=O)n1C)c1ccc(C(F)(F)F)cc1 [Example 235] | 
43 | < 1000 | Cc1ccc(-c2nn3c(C4CCOCC4)ncc3c(=O)n2C)cc1 [Example 236, 3-Methyl-2-(4-methylphenyl)-7-(tetrahydro-2H-pyran-4-yl)imidazo[5,1-f][1,2,4]triazin-4(3H)-one] | 
44 | < 1000 | Cn1c(/C=C/c2ccc(F)cc2)nn2c(C3CCOCC3)ncc2c1=O [Example 240, 2-[(E)-2-(4-Fluorophenyl)ethenyl]-3-methyl-7-(tetrahydro-2H-pyran-4-yl)imidazo[5,1-f][1,2,4]triazin-4(3H)-one] | 
45 | < 1000 | Cn1c(CCc2ccc(F)cc2)nn2c(C3CCOCC3)ncc2c1=O [Example 241, 2-[2-(4-Fluorophenyl)ethyl]-3-methyl-7-(tetrahydro-2H-pyran-4-yl)imidazo[5,1-f][1,2,4]triazin-4(3H)-one] | 
46 | < 1000 | COc1ccc(CCc2nn3c(C4CCOCC4)ncc3c(=O)n2C)cc1 [Example 243, 2-[2-(4-Methoxyphenyl)ethyl]-3-methyl-7-(tetrahydro-2H-pyran-4-yl)imidazo[5,1-f][1,2,4]triazin-4(3H)-one] | 
47 | < 1000 | Cn1c(CCc2ccccn2)nn2c(C3CCOCC3)ncc2c1=O [Example 244, 3-Methyl-2-[2-(pyridin-2-yl)ethyl]-7-(tetrahydro-2H-pyran-4-yl)imidazo[5,1-f][1,2,4]triazin-4(3H)-one] | 
48 | < 1000 | CCn1c(COc2ccc(F)cc2)nn2c(C3CCOCC3)ncc2c1=O [Example 259, 3-Ethyl-2-[(4-fluorophenoxy)methyl]-7-(tetrahydro-2H-pyran-4-yl)imidazo[5,1-f][1,2,4]triazin-4(3H)-one] | 
49 | < 1000 | COc1nn2c(C3CCOCC3)ncc2c(=O)n1Cc1ccc(C)cc1 [Example 264] | 
50 | < 1000 | COc1ccc(Cn2c(OC)nn3c(C4CCOCC4)ncc3c2=O)cc1 [Example 265] | 
51 | < 1000 | COc1cccc(Cn2c(OC)nn3c(C4CCOCC4)ncc3c2=O)c1 [Example 266] | 
52 | 1000 to 10000 | COc1nn2c(C3CCOCC3)ncc2c(=O)n1Cc1cccnc1 [Example 267] | 
53 | 1000 to 10000 | COc1nn2c(C3CCOCC3)ncc2c(=O)n1Cc1ccccn1 [Example 268] | 
54 | < 1000 | COc1nn2c(C3CCOCC3)ncc2c(=O)n1Cc1ccc(F)cn1 [Example 269] | 
55 | < 1000 | CCCn1c(OC)nn2c(C3CCOCC3)ncc2c1=O [Example 270] | 
56 | < 1000 | COc1nn2c(C3CCOCC3)ncc2c(=O)n1CC(C)C [Example 271] | 
57 | < 1000 | COc1nn2c(C3CCOCC3)ncc2c(=O)n1CC1CCCC1 [Example 274] | 
58 | < 1000 | COc1nn2c(C3CCOCC3)ncc2c(=O)n1CC1CCCCC1 [Example 275] | 
59 | < 1000 | COCCn1c(OCc2ccc(F)cc2)nn2c(C3CCOCC3)ncc2c1=O [Example 279] | 
60 | 10000 to 100000 | COc1nn2c(C3CCOCC3)ncc2c(=O)n1Cc1ccc(C#N)cc1 [Example 280] | 
